Measured values taken from publication PMC8880132 (Molecules, 2022).
Where two headings read alike, the source gives them in different places.

Experiments:
[1] = Pharmacokinetic drug-drug interaction study in rats after oral administration; format: in vivo, SD (Sprague-Dawley) rats; conditions: for Cmax / Tmax / half-life / AUC(0-inf) / AUC(0-t): male, Sprague-Dawley, rat, plasma, po; for Cmax / Tmax / half-life / AUC(0-inf) / AUC(0-t) / CLz / Vz: rat plasma; for Tmax: median (range); for half-life: read-out: t1/2z (converted)
Method: SPF (specific pathogen free)-grade male SD (Sprague-Dawley) rats (weight: 230 ± 10 g) were purchased from Beijing Weitong Lihua Experimental Animal Technology Co. Ltd. (Beijing, China). Before starting the experiment, the rats were given sufficient food and water and kept under suitable conditions for one week. Suitable conditions included suitable temperature (23–27 °C), suitable humidity (50 ± 10%), and 12-h light–12-h dark diurnal cycle. All animals were fasted for 12 h before the start of the experiment, but they were allowed to drink water freely. All the animal experimental protocols were conducted in accordance with the UK Animals (Scientific Procedures) Act 1986 and under the guideline approved by the Ethics Committee of Hebei General Hospital (Shijiazhuang, China; No. 2021131).
Twenty-four healthy rats were randomly and equally divided into four groups (six animals in each group). […] Approximately 0.3 mL of blood was collected from the orbital venous plexus in a heparinized centrifuge tube from each rat at 0.25, 0.5, 1, 2, 3, 4, 6, 8, 10, 12, 24, 48, 72, and 96 h after administration. […] The blood samples were collected from each rat at 0.17, 0.33, 0.5, 0.75, 1, 2, 3, 4, 6, 8, 10, 12, 24, 48, and 72 h after administration. Blood samples were centrifuged at 3500 rpm for 10 min, and the plasma samples (supernatant) were harvested and stored at −80 °C.
The main pharmacokinetic parameters are presented as mean ± standard deviation and statistically analyzed using SPSS 25.0 software package (SPSS Inc., Chicago, IL, USA). A p-value of <0.05 was considered statistically significant.

[2] = Stability of LEN and TEL in rat plasma under various storage conditions; format: in vitro ADME; conditions: for Stability, measured concentration Mean ± SD / Stability, Accuracy (RE%) vs nominal concentration: rat plasma; for Stability, measured concentration Mean ± SD: n = 6
Method: QC samples with six replicates of each concentration were used to assess the stability of the samples under different processing and storage conditions. […] The long-term stability was carried out by freezing at −80 °C for 30 days, and the freeze–thaw stability was verified by repeatedly freezing and thawing three times.

[3] = tested on: breast cancer resistance protein (BCRP); conditions: cited from earlier work
[4] = cited from earlier work
P-glycoprotein (P-gp) = conditions: cited from earlier work
[5] = tested on: multidrug resistance-associated protein 2 (MRP2); conditions: in vitro studies; cited from earlier work
[6] = cited from earlier work; remark: listed apart in the source
[7] = 1.2 mg/kg, LEN 1.2 mg/kg oral, alone
[8] = 1.2 mg/kg, LEN 1.2 mg/kg oral, with TEL (4 mg/kg)
[9] = LEN 1.2 mg/kg oral, with TEL (4 mg/kg)
[10] = autosampler for 24 h, high QC (800 ng/mL LEN, 400 ng/mL TEL)
[11] = autosampler for 24 h, low QC (0.5 ng/mL LEN, 0.25 ng/mL TEL)
[12] = freeze–thaw three times, high QC (800 ng/mL LEN, 400 ng/mL TEL)
[13] = freeze–thaw three times, low QC (0.5 ng/mL LEN, 0.25 ng/mL TEL)
[14] = freeze–thaw three times, medium QC (150 ng/mL LEN, 75 ng/mL TEL)
[15] = room temperature for 8 h, high QC (800 ng/mL LEN, 400 ng/mL TEL)
[16] = room temperature for 8 h, low QC (0.5 ng/mL LEN, 0.25 ng/mL TEL)
[17] = room temperature for 8 h, medium QC (150 ng/mL LEN, 75 ng/mL TEL)
[18] = −80 °C for 30 days, high QC (800 ng/mL LEN, 400 ng/mL TEL)
[19] = −80 °C for 30 days, low QC (0.5 ng/mL LEN, 0.25 ng/mL TEL)
[20] = −80 °C for 30 days, medium QC (150 ng/mL LEN, 75 ng/mL TEL)
[21] = TEL 4 mg/kg with LEN 1.2 mg/kg vs TEL alone, rats, oral
[22] = 4 mg/kg, TEL 4 mg/kg oral, alone
[23] = 4 mg/kg, TEL 4 mg/kg oral, with LEN (1.2 mg/kg)
[24] = autosampler for 24 h, medium QC (150 ng/mL LEN, 75 ng/mL TEL)

## COc1cc2nccc(Oc3ccc(NC(=O)NC4CC4)c(Cl)c3)c2cc1C(N)=O [LEN, Lenvatinib]
[1]; [7]
  Cmax: 498 ± 107 ng/mL
  Tmax: 2.5 h
  half-life: 8.75 ± 2.55 h
[1]; [8]
  AUC(0-inf): 5860 ± 1350 ng·h/mL
  AUC(0-t): 5860 ± 1350 ng·h/mL
  Cmax: 644 ± 211 ng/mL
  half-life: 9.32 ± 4.69 h
[1]; LEN 1.2 mg/kg oral, alone
  CLz: 3.5 ± 0.33 mL/min/kg
  Vz: 2.69 ± 0.79 L/kg
[1]; [9]
  CLz: 3.67 ± 0.83 mL/min/kg
  Vz: 2.92 ± 1.60 L/kg
[2]; [10]
  Stability, measured concentration Mean ± SD: 835.67 ± 34.60 ng/mL
[2]; [11]
  Stability, measured concentration Mean ± SD: 0.48 ± 0.03 ng/mL
[2]; [12]
  Stability, measured concentration Mean ± SD: 787.50 ± 40.13 ng/mL
[2]; [13]
  Stability, measured concentration Mean ± SD: 0.48 ± 0.05 ng/mL
[2]; [14]
  Stability, measured concentration Mean ± SD: 150.17 ± 14.85 ng/mL
[2]; [15]
  Stability, measured concentration Mean ± SD: 751.50 ± 19.74 ng/mL
[2]; [16]
  Stability, measured concentration Mean ± SD: 0.52 ± 0.03 ng/mL
[2]; [17]
  Stability, measured concentration Mean ± SD: 149.33 ± 11.15 ng/mL
[2]; [18]
  Stability, measured concentration Mean ± SD: 808.00 ± 59.16 ng/mL
[2]; [19]
  Stability, measured concentration Mean ± SD: 0.53 ± 0.05 ng/mL
[2]; [20]
  Stability, measured concentration Mean ± SD: 154.00 ± 4.77 ng/mL
[3]
  BCRP interaction: substrate
[4]
  water solubility: poor water solubility
P-glycoprotein (P-gp)
  P-gp interaction: substrate

## CCCc1nc2c(C)cc(-c3nc4ccccc4n3C)cc2n1Cc1ccc(-c2ccccc2C(=O)O)cc1 [TEL, Telmisartan]
[1]; [21]
  AUC0–72h reduced by: 44.9%
  AUC0–∞ reduced by: 41.3%
  Cmax reduced by: 42.2%
  Vz higher by: 97.1%
  increase in CL: 69%
[1]; [22]
  AUC(0-inf): 4180 ± 1040 ng·h/mL
  AUC(0-t): 4150 ± 1040 ng·h/mL
  Cmax: 171 ± 38 ng/mL
  Tmax: 8 h
  half-life: 9.36 ± 2.09 h
[1]; [23]
  AUC(0-inf): 2460 ± 544 ng·h/mL
  AUC(0-t): 2280 ± 322 ng·h/mL
  Cmax: 99 ± 19.3 ng/mL
  Tmax: 11 h
  half-life: 12.4 ± 12.7 h
[1]; TEL 4 mg/kg oral, alone
  CLz: 16.7 ± 3.5 mL/min/kg
[1]; TEL 4 mg/kg oral, with LEN (1.2 mg/kg)
  CLz: 28.2 ± 5.83 mL/min/kg
[2]; [10]
  Stability, Accuracy (RE%) vs nominal concentration: −0.38%
  Stability, measured concentration Mean ± SD: 398.50 ± 22.76 ng/mL
[2]; [11]
  Stability, Accuracy (RE%) vs nominal concentration: −4.33%
  Stability, measured concentration Mean ± SD: 0.24 ± 0.02 ng/mL
[2]; [24]
  Stability, Accuracy (RE%) vs nominal concentration: −1.76%
  Stability, measured concentration Mean ± SD: 73.68 ± 1.59 ng/mL
[2]; [12]
  Stability, Accuracy (RE%) vs nominal concentration: −2.17%
  Stability, measured concentration Mean ± SD: 391.33 ± 25.73 ng/mL
[2]; [13]
  Stability, Accuracy (RE%) vs nominal concentration: −0.47%
  Stability, measured concentration Mean ± SD: 0.25 ± 0.01 ng/mL
[2]; [14]
  Stability, Accuracy (RE%) vs nominal concentration: −3.53%
  Stability, measured concentration Mean ± SD: 72.35 ± 2.51 ng/mL
[2]; [15]
  Stability, Accuracy (RE%) vs nominal concentration: −7.58%
  Stability, measured concentration Mean ± SD: 369.67 ± 6.98 ng/mL
[2]; [16]
  Stability, Accuracy (RE%) vs nominal concentration: −3.53%
  Stability, measured concentration Mean ± SD: 0.24 ± 0.01 ng/mL
[2]; [17]
  Stability, Accuracy (RE%) vs nominal concentration: −2.36%
  Stability, measured concentration Mean ± SD: 73.23 ± 5.40 ng/mL
[2]; [18]
  Stability, Accuracy (RE%) vs nominal concentration: 0.38%
  Stability, measured concentration Mean ± SD: 401.50 ± 27.46 ng/mL
[2]; [19]
  Stability, Accuracy (RE%) vs nominal concentration: 1.80%
  Stability, measured concentration Mean ± SD: 0.25 ± 0.01 ng/mL
[2]; [20]
  Stability, Accuracy (RE%) vs nominal concentration: −0.36%
  Stability, measured concentration Mean ± SD: 74.73 ± 1.64 ng/mL
[2]; room temperature 8 h, autosampler 24 h after processing, −80 °C 30 days, freezing and thawing three times
  stability of plasma samples: stable
[3]; in vitro studies
  BCRP interaction: substrate and inhibitor
[5]
  MRP2 interaction: substrate and inhibitor
[4]; solubility is related to PH
  water solubility: poorly water-soluble
P-glycoprotein (P-gp); in vitro studies
  P-gp interaction: substrate and inhibitor
[6]
  half-life: 24 h
